The values below come from patent US11911349B2, “Rapidly improving vascular conditions by administering vitamin K” (NATTOPHARMA AS, priority 2018, dated 2024).

One assay deals with matrix gla protein (MGP). Nature of the assay: Clinical study: blood analysis of matrix gla protein (MGP) carboxylation. The format is in vivo, human. To be noted: 360 ug/day for 8 weeks, kidney transplant patients. How it is done: (§1) Participants were enrolled in a clinical trial in which the effects of vitamin K2 were determined for patients who had recently undergone a kidney transplant. At the beginning of the study, patients were subjected to a non-invasive pulse wave velocity measurement to measure arterial stiffness/flexibility, as well as blood analysis. The study participants were then instructed to receive a specific daily dose of MenaQ7 vitamin K2 menaquinone-7 (360 ug/day) for a total of 8 weeks. At the end of 8 weeks, patients were again examined with a follow-up examination, a non-invasive pulse wave velocity measurement and blood analysis and drug treatment was discontinued.
As part of the blood analysis, carboxylated matrix gla protein (MGP) was measured as a direct measure of vitamin K2 activity. The carboxylated MGP inhibits calcification of blood vessels and Vitamin K2 stimulates carboxylation of MGP.

Assay [1] relates to kidney transplantation patients. Nature of the assay: Clinical study: pulse wave velocity measurement of arterial stiffness in kidney transplantation patients. The note with it: 360 ug/day for 8 weeks, kidney transplant patients. It counts as in vivo, human. How it is done: Clinical Study to study the efficacy and safety of Vitamin K2 supplementation on arterial stiffness, the rigidity of arterial walls, in kidney transplantation patients.
A clinical study was carried out. Arterial wall property measurements were taken at t=0 and t=8 weeks and show a dramatic improvement in arterial wall flexibility. This is good support for concluding that the ingestion of vitamin K, even over this short period, is an effective way of improving endothelial function, reducing arterial stiffness and reducing calcification. […] It is surprising and unexpected because calcification is a slow progressive process and it was thought that reversing this process would also be slow and progressive.
as §1

Turning to `CC(C)=CCC/C(C)=C/CC/C(C)=C/CC/C(C)=C/CC/C(C)=C/CC/C(C)=C/CC/C(C)=C/CC1=C(C)C(=O)c2ccccc2C1=O` [MenaQ7, menaquinone-7], the “mean reduction of levels of uncarboxylated MGP” value in the assay with matrix gla protein (MGP) is recorded as 55%. The “mean reduction in measured pulse-wave velocity” value in assay [1] was determined as 30%.
